Calls of active or inactive are those of the source. The rule behind the calls is not given here.
Experiments:
[1] = tested on: Fibroblast; experiment: Reduction in C26:0 lysophosphatidyl choline synthesis in primary human AMN patient-derived fibroblast incubated for 48 hrs; assay type: functional, cell-based; details: DDE = dose-dependent effect
[2] = Toxicity in Sprague-Dawley rat assessed as ocular epithelial atrophy at 5 mg/kg/day, po administered for 8 weeks by microscopic observation analysis; assay type: organism-based; details: in vivo, 1344 h
[3] = tested on: Mus musculus; experiment: Reduction in C26:0/C16:0 LPC level in high fat diet fed ABCD1 knock out mouse blood at 1 to 8 mg/kg, po qd measured on day 28 after 7 days of treatment discontinuation by LC-MS/MS analysis; assay type: functional, organism-based; details: dose 1-8 mg/kg, time 28.0 day
[4] = Reduction in C26:0/C16:0 LPC level in ABCD1 knock out mouse CNS at 20 mg/kg, po qd measured after 8 months of dosing by LC-MS/MS analysis; assay type: functional; parameters: scale not given: the % may be the effect or the level left; details: 5840 h
[5] = Toxicity in juvenile Sprague-Dawley rat assessed as stomach lesions at 5 to 75 mg/kg/day, po treatment started from postnatal day 18 to 114 days; assay type: organism-based; details: in vivo, dose lower 5 mg/kg/day, time lower 18 day, dose upper 75 mg/kg/day, time upper 114 day
[6] = Reduction in C26:0 LPC level in ABCD1 knock out mouse blood assessed as fold increase at 0.5 to 32 mg/kg, po qd for 105 days by LC-MS/MS analysis; assay type: functional; details: dose 0.5-32 mg/kg, time 105 day
[7] = target: T1, Very long chain fatty acid elongase 1 (Homo sapiens, UniProt Q9BW60); experiment: Inhibition of ELOVL1 (unknown origin) using C22-acyl-CoA as substrate by radiometric enzyme assay
T1 sequence (Q9BW60 whole entry): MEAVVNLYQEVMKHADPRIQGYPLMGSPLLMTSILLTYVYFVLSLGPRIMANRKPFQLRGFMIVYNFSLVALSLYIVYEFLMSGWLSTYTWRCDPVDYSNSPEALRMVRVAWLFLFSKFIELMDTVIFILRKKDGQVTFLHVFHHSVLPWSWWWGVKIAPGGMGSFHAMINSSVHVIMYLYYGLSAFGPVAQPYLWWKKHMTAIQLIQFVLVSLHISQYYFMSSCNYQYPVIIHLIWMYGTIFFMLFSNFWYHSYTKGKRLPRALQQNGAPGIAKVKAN

[8] = Toxicity in Cynomolgus monkey assessed as dry and red scaly areas on eyelids at 5 to 50 mg/kg/day, po administered for 14 days by macroscopic observation analysis; assay type: organism-based, Macaca fascicularis; details: in vivo, 336 h, dose 5-50 mg/kg/day, time 14 day
[9] = Tmax in Cynomolgus monkey at 3 mg/kg, po upto 24 hrs by LC/MS/MS analysis; assay type: ADME, organism-based, Macaca fascicularis; details: in vivo
[10] = target: T1, Very long chain fatty acid elongase 1; experiment: Inhibition of ELOVL1 in CALD patient-derived human fibroblast assessed as reduction of C26:0 VLCFA synthesis incubated for 48 hrs by cellular assay; assay type: cell-based
[11] = Toxicity in Sprague-Dawley rat assessed as ocular stromal fibrosis at 5 mg/kg/day, po administered for 8 weeks by microscopic observation analysis; assay type: organism-based; details: in vivo, 1344 h
[12] = target: T1, Very long chain fatty acid elongase 1; experiment: Inhibition of ELOVL1 in human microglia assessed as reduction of C26:0 VLCFA synthesis incubated for 48 hrs by cellular assay; assay type: cell-based
[13] = Volume of distribution at steady state in Beagle dog at 0.5 mg/kg, iv upto 48 hrs by LC/MS/MS analysis; assay type: ADME, organism-based, Canis lupus familiaris; details: in vivo, read-out: Vdss
[14] = Toxicity in juvenile Sprague-Dawley rat assessed as ocular inflammation at 5 to 75 mg/kg/day, po treatment started from postnatal day 18 to 114 days; assay type: organism-based; details: in vivo, dose lower 5 mg/kg/day, time lower 18 day, dose upper 75 mg/kg/day, time upper 114 day
[15] = tested on: Mus musculus; experiment: Reduction in C26:0/C16:0 LPC level in normal diet fed ABCD1 knock out mouse blood administered orally qd measured after 14 day by LC-MS/MS analysis; assay type: functional, tissue-based; details: route po, DDE = dose-dependent effect
[16] = Efflux ratio of permeability across […] in dog MDCK-MDR1 transfected cells by LC-MS analysis; assay type: ADME, cell-based, Canis lupus familiaris
[17] = Volume of distribution at steady state in mouse at 1 mg/kg, iv upto 48 hrs by LC/MS/MS analysis; assay type: ADME, organism-based; details: in vivo, read-out: Vdss
[18] = tested on: HEK-293T; experiment: Reduction in C26:0 LPC level in isogenic wild-type human HEK-293T cells with ELOVL-1 expression in presence of 13C-labeled acetate measured after 48 hrs by mass spectroscopy; assay type: functional, cell-based
[19] = Reduction in C26:0/C16:0 LPC level in ABCD1 knock out mouse CNS at 10 mg/kg, po qd measured after 3 months of dosing by LC-MS/MS analysis; assay type: functional; parameters: scale not given: the % may be the effect or the level left; details: 2190 h
[20] = Reduction in C26:0/C16:0 LPC level in ABCD1 knock out mouse CNS at 1 mg/kg, po qd measured after 3 months of dosing by LC-MS/MS analysis; assay type: functional; parameters: scale not given: the % may be the effect or the level left; details: 2190 h
[21] = Reduction in C26:0/C16:0 LPC level in wild-type Sprague-Dawley rat at 30 mg/kg, po qd treated for 7 days by LC-MS/MS analysis; assay type: functional; parameters: scale not given: the % may be the effect or the level left; details: time 7 day
[22] = Toxicity in telemetry-implanted Cynomolgus monkey assessed as higher baseline beta EEG activity at 5 to 20 mg/kg/day,NG administered for 7 days; assay type: organism-based, Macaca fascicularis; details: in vivo, po, 168 h, dose 5-20 mg/kg/day, time 7 day
[23] = target: Rho-associated protein kinase 2 (Homo sapiens) (UniProt O75116); experiment: Inhibition of ROCK 2 (unknown origin) at 10 uM
Rho-associated protein kinase 2 (Homo sapiens), sequence (O75116 whole entry, looked up): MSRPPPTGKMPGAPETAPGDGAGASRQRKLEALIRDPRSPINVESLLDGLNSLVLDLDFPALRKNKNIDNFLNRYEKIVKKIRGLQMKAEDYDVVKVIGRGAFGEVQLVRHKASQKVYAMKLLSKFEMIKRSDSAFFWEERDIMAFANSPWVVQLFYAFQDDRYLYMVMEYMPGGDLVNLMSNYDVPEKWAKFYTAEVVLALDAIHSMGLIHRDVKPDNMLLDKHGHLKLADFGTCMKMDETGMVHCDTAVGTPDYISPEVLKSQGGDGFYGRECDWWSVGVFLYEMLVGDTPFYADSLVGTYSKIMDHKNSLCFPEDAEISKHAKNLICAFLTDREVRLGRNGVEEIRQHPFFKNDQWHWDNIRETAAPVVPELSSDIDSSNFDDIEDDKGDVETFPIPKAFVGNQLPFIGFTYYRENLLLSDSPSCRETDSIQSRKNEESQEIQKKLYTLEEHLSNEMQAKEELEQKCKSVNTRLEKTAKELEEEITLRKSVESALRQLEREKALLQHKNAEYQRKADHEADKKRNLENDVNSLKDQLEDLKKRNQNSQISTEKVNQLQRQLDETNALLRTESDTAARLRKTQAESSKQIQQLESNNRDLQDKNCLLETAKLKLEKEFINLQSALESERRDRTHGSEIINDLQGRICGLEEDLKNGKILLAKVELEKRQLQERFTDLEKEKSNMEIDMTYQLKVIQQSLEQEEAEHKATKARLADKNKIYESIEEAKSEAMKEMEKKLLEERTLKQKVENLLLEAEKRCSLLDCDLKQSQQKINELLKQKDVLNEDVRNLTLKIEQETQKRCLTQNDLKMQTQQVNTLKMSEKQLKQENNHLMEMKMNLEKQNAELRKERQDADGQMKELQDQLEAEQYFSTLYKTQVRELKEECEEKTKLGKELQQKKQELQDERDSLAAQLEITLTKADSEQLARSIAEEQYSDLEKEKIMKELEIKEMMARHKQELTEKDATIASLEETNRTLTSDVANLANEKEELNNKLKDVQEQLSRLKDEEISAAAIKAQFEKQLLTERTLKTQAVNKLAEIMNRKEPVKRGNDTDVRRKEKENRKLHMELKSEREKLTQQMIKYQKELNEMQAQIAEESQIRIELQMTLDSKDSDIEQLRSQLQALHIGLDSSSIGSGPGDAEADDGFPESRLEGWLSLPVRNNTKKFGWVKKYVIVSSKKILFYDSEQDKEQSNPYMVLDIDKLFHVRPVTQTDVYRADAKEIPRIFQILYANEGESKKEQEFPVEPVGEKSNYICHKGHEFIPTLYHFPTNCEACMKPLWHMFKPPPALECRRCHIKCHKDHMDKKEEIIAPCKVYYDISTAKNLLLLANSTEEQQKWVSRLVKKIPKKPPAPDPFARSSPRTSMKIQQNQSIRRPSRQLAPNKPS

[24] = Increase in C20:0/C16:0 total VLCFA levels in ABCD1 knock out mouse CNS at 1 to 10 mg/kg, po qd measured after 3 months of dosing by LC-MS/MS analysis; assay type: functional; details: dose 1-10 mg/kg, 2190 h
[25] = Plasma protein binding in rat at 5 uM; assay type: ADME, cell-free; details: read-out: PPB (converted)
[26] = Toxicity in Cynomolgus monkey assessed as skin inflammatory infiltrates at 5 to 50 mg/kg/day, po administered for 14 days by microscopic observation analysis; assay type: organism-based, Macaca fascicularis; details: in vivo, 336 h, dose 5-50 mg/kg/day, time 14 day
[27] = Plasma protein binding in human at 5 uM; assay type: ADME, cell-free; details: read-out: PPB (converted)
[28] = target: Voltage-gated inwardly rectifying potassium channel KCNH2 (Homo sapiens, UniProt Q12809); experiment: Inhibition of human ERG by patch-clamp assay; assay type: toxicity
Voltage-gated inwardly rectifying potassium channel KCNH2, sequence (Q12809 whole entry): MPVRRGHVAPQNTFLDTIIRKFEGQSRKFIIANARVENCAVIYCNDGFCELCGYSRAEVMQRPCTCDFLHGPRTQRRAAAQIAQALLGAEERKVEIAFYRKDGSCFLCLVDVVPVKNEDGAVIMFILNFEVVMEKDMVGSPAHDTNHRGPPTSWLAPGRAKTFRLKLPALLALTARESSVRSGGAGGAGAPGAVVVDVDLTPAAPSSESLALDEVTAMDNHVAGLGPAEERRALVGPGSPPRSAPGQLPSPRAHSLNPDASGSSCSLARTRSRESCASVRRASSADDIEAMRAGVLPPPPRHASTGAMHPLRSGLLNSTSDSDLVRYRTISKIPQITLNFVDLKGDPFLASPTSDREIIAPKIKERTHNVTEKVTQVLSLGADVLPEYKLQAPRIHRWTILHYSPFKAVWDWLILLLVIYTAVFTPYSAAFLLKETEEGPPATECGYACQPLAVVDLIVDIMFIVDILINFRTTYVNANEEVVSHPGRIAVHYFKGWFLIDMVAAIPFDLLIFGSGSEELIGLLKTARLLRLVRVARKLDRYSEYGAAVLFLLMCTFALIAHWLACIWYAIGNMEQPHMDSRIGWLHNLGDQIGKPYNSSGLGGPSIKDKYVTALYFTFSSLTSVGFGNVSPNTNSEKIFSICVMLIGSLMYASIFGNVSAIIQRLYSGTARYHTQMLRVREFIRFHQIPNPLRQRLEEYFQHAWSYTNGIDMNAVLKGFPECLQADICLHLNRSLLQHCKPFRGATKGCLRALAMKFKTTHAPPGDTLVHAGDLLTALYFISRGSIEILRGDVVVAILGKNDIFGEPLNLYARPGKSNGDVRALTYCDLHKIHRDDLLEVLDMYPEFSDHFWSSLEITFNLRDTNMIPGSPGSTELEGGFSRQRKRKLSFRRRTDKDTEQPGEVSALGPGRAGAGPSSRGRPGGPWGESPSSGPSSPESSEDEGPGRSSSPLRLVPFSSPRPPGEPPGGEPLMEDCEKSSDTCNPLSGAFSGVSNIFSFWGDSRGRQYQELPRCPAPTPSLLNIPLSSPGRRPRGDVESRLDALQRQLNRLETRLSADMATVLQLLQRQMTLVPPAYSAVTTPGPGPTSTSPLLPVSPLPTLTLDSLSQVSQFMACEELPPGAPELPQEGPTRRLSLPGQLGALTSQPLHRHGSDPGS

[29] = target: T2, Very long chain fatty acid elongase 7 (Homo sapiens) (UniProt A1L3X0); experiment: Inhibition of ELOVL-7 in human HEK2936E cells assessed as reduction in C22:0 lysophosphatidyl choline synthesis at 100 nM in presence of 13C-labeled acetate measured after 48 hrs; assay type: cell-based
T2 sequence (whole entry): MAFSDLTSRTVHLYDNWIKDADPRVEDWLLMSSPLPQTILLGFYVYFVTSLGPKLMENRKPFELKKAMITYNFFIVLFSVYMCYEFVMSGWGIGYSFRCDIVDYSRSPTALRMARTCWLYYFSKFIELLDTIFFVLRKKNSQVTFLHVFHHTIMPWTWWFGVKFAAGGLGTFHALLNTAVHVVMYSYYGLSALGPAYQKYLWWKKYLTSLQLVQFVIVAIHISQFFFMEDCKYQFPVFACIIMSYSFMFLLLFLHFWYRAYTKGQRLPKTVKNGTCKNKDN

IC50 [7]: 0.9 µM
Tmax [9]: 2.3 h
IC50 [10]: 0.02 µM
IC50 [12]: 0.011 µM
Vd [13]: 7.5 L/kg
Ratio [16]: 1.1
Vd [17]: 2.6 L/kg
inhibition [23]: > 50%
fraction unbound at 5 µM [25]: 0.071
fraction unbound at 5 µM [27]: 0.062
inhibition [29]: Active
Structure (SMILES): O=C(Nc1ccn(-c2ccnc(F)c2)n1)C1(c2ccccc2F)CC1
Activity [1]: Dde
Activity [2]: Toxic
Activity [3]: Active
Activity [4]: 65%
Activity [5]: Toxic
fold change (FC) [6]: 10
Activity [8]: Toxic
Activity [11]: Toxic
Activity [14]: Toxic
Activity [15]: Dde
Activity [18]: Active
Activity [19]: 34%
Activity [20]: 25%
Activity [21]: 67%
Activity [22]: Toxic
Activity [24]: <6%
Activity [26]: Toxic
IC50 [28]: > 30 µM

From ChEMBL document CHEMBL5131397, “Discovery and Optimization of Pyrazole Amides as Inhibitors of ELOVL1” (J Med Chem, 2021)
